Results from US20240132521A1, “COMPOUNDS AND METHODS FOR MODULATING HER2” (Iambic Therapeutics, Inc., priority 2022, published 2024).

What was measured:
Format in all cases: cell-based
BaF3_HER2WT cells = BaF3_HER2WT cells (Homo sapiens, UniProt P04626); assay: Cell growth inhibition assay (CellTiterGlo), BaF3_HER2WT; details: 3-day treatment, CellTiterGlo, read-out: Cell growth inhibition activity, HER2 WT
BaF3_HER2YVMA cells = BaF3_HER2YVMA cells (Homo sapiens, UniProt P04626, DUP772-775, cells depend on it); assay: Cell growth inhibition assay (CellTiterGlo), BaF3_HER2YVMA; details: 3-day treatment, CellTiterGlo, read-out: Cell growth inhibition activity, HER2 - YVMA
Chain of BaF3_HER2YVMA cells (P04626 with tags, fused parts or gaps DUP772-775): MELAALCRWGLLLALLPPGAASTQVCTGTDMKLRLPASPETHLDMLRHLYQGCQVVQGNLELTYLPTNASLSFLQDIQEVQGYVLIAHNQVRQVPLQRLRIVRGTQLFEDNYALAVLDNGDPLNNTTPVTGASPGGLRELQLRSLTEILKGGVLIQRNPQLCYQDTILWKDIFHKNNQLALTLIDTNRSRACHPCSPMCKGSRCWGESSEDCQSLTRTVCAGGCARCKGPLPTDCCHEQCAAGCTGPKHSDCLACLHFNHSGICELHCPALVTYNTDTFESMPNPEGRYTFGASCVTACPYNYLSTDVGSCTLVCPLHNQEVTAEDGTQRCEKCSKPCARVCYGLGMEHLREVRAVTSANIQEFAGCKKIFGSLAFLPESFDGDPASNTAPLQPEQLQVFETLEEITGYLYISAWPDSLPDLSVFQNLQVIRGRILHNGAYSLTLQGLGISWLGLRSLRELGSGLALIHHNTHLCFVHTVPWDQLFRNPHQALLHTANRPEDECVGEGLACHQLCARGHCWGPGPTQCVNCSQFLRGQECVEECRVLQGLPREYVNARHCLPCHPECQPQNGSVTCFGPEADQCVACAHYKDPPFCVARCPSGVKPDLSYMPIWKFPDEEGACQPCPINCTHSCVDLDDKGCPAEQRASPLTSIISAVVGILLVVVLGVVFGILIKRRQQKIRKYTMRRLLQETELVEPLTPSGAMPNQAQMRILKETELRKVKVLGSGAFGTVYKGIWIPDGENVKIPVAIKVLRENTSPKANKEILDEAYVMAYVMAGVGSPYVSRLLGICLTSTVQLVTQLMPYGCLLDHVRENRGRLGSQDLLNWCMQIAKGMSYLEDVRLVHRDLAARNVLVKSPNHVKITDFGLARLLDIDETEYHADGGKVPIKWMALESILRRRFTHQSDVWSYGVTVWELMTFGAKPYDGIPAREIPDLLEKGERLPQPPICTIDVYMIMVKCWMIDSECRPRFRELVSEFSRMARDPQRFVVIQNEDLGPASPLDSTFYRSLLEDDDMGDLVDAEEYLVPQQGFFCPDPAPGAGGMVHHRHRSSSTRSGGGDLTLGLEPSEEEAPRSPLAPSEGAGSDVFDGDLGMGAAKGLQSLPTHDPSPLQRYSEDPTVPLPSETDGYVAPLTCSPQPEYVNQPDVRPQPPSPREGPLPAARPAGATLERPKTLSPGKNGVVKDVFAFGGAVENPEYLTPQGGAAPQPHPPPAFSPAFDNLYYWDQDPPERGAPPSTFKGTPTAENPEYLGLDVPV

BaF3_EGFRWT cells = BaF3_EGFRWT cells (Homo sapiens, UniProt P00533); assay: Cell growth inhibition assay (CellTiterGlo), BaF3_EGFRWT; details: 3-day treatment, CellTiterGlo, read-out: Cell growth inhibition activity, EGFR WT
Chain of BaF3_EGFRWT cells (P00533 whole entry, change not shown): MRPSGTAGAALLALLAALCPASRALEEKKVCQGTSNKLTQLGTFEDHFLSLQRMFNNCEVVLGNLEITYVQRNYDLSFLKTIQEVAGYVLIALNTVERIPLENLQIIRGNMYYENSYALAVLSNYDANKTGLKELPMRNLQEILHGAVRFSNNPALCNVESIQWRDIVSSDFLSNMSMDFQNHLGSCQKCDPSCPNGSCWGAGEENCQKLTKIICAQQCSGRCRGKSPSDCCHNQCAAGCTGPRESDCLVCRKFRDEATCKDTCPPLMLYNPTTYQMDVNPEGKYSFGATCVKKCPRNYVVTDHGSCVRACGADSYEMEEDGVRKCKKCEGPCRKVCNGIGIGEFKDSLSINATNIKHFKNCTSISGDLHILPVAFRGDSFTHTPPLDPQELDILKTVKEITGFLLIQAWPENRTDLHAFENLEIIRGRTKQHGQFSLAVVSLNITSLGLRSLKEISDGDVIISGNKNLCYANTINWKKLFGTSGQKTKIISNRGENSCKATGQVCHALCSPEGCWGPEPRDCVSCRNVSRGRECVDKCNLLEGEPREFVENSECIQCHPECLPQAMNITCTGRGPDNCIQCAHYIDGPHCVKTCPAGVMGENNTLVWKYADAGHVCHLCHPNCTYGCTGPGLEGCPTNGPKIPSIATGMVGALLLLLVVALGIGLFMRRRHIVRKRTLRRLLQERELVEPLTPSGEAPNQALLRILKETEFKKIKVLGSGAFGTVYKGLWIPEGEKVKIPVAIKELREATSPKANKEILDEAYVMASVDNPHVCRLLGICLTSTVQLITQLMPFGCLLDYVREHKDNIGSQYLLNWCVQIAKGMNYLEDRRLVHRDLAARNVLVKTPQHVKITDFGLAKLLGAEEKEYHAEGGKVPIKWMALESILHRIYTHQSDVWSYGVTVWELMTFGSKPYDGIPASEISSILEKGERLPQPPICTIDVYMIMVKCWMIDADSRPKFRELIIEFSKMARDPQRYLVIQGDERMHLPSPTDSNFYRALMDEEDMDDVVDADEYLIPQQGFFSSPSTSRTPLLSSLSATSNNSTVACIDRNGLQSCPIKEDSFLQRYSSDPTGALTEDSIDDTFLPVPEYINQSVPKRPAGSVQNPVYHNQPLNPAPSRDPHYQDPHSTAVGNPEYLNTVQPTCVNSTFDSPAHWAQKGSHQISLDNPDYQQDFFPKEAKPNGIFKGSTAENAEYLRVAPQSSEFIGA

Chain of BaF3_HER2WT cells (P04626 whole entry, change not shown): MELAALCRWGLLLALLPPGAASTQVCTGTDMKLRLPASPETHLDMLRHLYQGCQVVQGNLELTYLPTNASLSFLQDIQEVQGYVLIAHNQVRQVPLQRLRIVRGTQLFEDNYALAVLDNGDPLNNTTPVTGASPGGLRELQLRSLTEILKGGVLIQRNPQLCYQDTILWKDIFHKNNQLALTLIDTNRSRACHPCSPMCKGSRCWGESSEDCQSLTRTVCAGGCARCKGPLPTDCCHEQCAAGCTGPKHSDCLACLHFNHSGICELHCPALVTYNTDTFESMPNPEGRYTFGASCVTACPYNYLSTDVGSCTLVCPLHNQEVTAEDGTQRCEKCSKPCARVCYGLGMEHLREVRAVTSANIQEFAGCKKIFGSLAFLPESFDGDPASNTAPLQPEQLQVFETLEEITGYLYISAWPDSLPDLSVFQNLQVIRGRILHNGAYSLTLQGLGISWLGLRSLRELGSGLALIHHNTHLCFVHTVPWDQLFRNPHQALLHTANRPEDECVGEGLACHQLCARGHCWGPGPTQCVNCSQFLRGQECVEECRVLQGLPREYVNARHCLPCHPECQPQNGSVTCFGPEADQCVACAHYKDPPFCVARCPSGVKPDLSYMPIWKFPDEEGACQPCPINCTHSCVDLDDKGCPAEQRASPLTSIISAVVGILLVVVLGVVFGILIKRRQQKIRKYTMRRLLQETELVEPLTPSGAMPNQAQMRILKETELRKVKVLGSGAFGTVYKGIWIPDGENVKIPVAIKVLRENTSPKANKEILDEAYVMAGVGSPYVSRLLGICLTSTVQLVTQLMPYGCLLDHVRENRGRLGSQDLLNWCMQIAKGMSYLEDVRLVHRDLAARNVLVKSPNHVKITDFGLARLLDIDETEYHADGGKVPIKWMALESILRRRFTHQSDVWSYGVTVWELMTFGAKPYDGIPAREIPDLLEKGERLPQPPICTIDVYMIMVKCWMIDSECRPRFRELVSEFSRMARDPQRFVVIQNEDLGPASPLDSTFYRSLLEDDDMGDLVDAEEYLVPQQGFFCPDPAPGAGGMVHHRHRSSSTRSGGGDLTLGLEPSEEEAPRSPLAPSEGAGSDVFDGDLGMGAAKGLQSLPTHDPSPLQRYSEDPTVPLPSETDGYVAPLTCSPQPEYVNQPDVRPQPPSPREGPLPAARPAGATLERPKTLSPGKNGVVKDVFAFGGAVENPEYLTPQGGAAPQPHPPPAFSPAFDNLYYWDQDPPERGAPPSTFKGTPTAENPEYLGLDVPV

| GI50 (BaF3_HER2WT cells) [µM] | GI50 (BaF3_HER2YVMA cells) [µM] | GI50 (BaF3_EGFRWT cells) [µM] | SMILES |
| --- | --- | --- | --- |
| < 0.2 | < 0.2 | 1.5 to 5 | Cc1cc(Nc2ncnn3ccc(C4CN(C(=O)/C=C/C5CCCN5C)C4)c23)ccc1Oc1ccn2ncnc2c1 (stereo not drawn) [Example 66, (E)-1-(3-(4-((4-([1,2,4]triazolo[1,5-a]pyridin-7-yloxy)-3-methylphenyl)amino)pyrrolo[2,1-f][1,2,4]triazin-5-yl)azetidin-1-yl)-3-(1-methylpyrrolidin-2-yl)prop-2-en-1-one] |
| < 0.2 | < 0.2 | 0.5 to 1.5 | C=C(CN(C)C)C(=O)N1CC(c2ccn3ncnc(Nc4ccc(Oc5ccc6c(c5)ncn6C)c(C)c4)c23)C1 [Example 67, 2-((dimethylamino)methyl)-1-(3-(4-((3-methyl-4-((1-methyl-1H-benzo[d]imidazol-5-yl)oxy)phenyl)amino)pyrrolo[2,1-f][1,2,4]triazin-5-yl)azetidin-1-yl)prop-2-en-1-one] |
| < 0.2 | < 0.2 | 1.5 to 5 | Cc1cc(Nc2ncnn3ccc(N4CCCC(N(C)C(=O)/C=C/CN(C)C)C4)c23)ccc1Oc1ccn2ncnc2c1 (stereo not drawn) [Example 68, (E)-N-(1-(4-((4-([1,2,4]triazolo[1,5-a]pyridin-7-yloxy)-3-methylphenyl)amino)pyrrolo[2,1-f][1,2,4]triazin-5-yl)piperidin-3-yl)-4-(dimethylamino)-N-methylbut-2-enamide] |
| < 0.2 | 0.2 to 0.5 | 1.5 to 5 | C=CC(=O)N(C)C1CCCN(c2ccn3ncnc(Nc4ccc(Oc5ccn6ncnc6c5)c(C)c4)c23)C1 (stereo not drawn) [Example 69, N-(1-(4-((4-([1,2,4]triazolo[1,5-a]pyridin-7-yloxy)-3-methylphenyl)amino)pyrrolo[2,1-f][1,2,4]triazin-5-yl)piperidin-3-yl)-N-methylacrylamide] |
| < 0.2 | < 0.2 | 1.5 to 5 | Cc1cc(Nc2ncnn3ccc(N4CCC(N(C)C(=O)/C=C/CN(C)C)C4)c23)ccc1Oc1ccn2ncnc2c1 (stereo not drawn) [Example 70, (E)-N-(1-(4-((4-([1,2,4]triazolo[1,5-a]pyridin-7-yloxy)-3-methylphenyl)amino)pyrrolo[2,1-f][1,2,4]triazin-5-yl)pyrrolidin-3-yl)-4-(dimethylamino)-N-methylbut-2-enamide] |
| < 0.2 | 0.2 to 0.5 | 1.5 to 5 | Cc1cc(Nc2ncnn3ccc(N4CC(NC(=O)/C=C/CN(C)C)C4)c23)ccc1Oc1ccn2ncnc2c1 [Example 71, (E)-N-(1-(4-((4-([1,2,4]triazolo[1,5-a]pyridin-7-yloxy)-3-methylphenyl)amino)pyrrolo[2,1-f][1,2,4]triazin-5-yl)azetidin-3-yl)-4-(dimethylamino)but-2-enamide] |
| < 0.2 | 0.5 to 1.5 | 1.5 to 5 | Cc1cc(Nc2ncnn3ccc(N4CCC(N(C)C(=O)/C=C/CN(C)C)CC4)c23)ccc1Oc1ccn2ncnc2c1 [Example 73, (E)-N-(1-(4-((4-([1,2,4]triazolo[1,5-a]pyridin-7-yloxy)-3-methylphenyl)amino)pyrrolo[2,1-f][1,2,4]triazin-5-yl)piperidin-4-yl)-4-(dimethylamino)-N-methylbut-2-enamide] |
| < 0.2 | 0.5 to 1.5 | 1.5 to 5 | C=CC(=O)N(C)C1CCN(c2ccn3ncnc(Nc4ccc(Oc5ccn6ncnc6c5)c(C)c4)c23)CC1 [Example 74, N-(1-(4-((4-([1,2,4]triazolo[1,5-a]pyridin-7-yloxy)-3-methylphenyl)amino)pyrrolo[2,1-f][1,2,4]triazin-5-yl)piperidin-4-yl)-N-methylacrylamide] |
| < 0.2 | < 0.2 | 0.5 to 1.5 | C=CC(=O)N1CCN(c2ccn3ncnc(Nc4ccc(Oc5ccn6ncnc6c5)c(C)c4)c23)CC12CC2 [Example 75, 1-(7-(4-((4-([1,2,4]triazolo[1,5-a]pyridin-7-yloxy)-3-methylphenyl)amino)pyrrolo[2,1-f][1,2,4]triazin-5-yl)-4,7-diazaspiro[2.5]octan-4-yl)prop-2-en-1-one] |
| < 0.2 | 0.5 to 1.5 | 1.5 to 5 | C=CC(=O)NC1CCCN(c2ccn3ncnc(Nc4ccc(Oc5ccn6ncnc6c5)c(C)c4)c23)C1 (stereo not drawn) [Example 76, N-(1-(4-((4-([1,2,4]triazolo[1,5-a]pyridin-7-yloxy)-3-methylphenyl)amino)pyrrolo[2,1-f][1,2,4]triazin-5-yl)piperidin-3-yl)acrylamide] |
| 0.2 to 0.5 | 1.5 to 5 | 1.5 to 5 | C=CC(=O)N1CC(N(C)c2ccn3ncnc(Nc4ccc(Oc5ccn6ncnc6c5)c(C)c4)c23)C1 [Example 77, 1-(3-((4-((4-([1,2,4]triazolo[1,5-a]pyridin-7-yloxy)-3-methylphenyl)amino)pyrrolo[2,1-f][1,2,4]triazin-5-yl)(methyl)amino)azetidin-1-yl)prop-2-en-1-one] |
| < 0.2 | 0.2 to 0.5 | 1.5 to 5 | C=CC(=O)NC1CCN(c2ccn3ncnc(Nc4ccc(Oc5ccn6ncnc6c5)c(C)c4)c23)CC1 [Example 78, N-(1-(4-((4-([1,2,4]triazolo[1,5-a]pyridin-7-yloxy)-3-methylphenyl)amino)pyrrolo[2,1-f][1,2,4]triazin-5-yl)piperidin-4-yl)acrylamide] |
| < 0.2 | 0.2 to 0.5 | 1.5 to 5 | C=CC(=O)NC1CCN(c2ccn3ncnc(Nc4ccc(Oc5ccn6ncnc6c5)c(C)c4)c23)C1 (stereo not drawn) [Example 79, N-(1-(4-((4-([1,2,4]triazolo[1,5-a]pyridin-7-yloxy)-3-methylphenyl)amino)pyrrolo[2,1-f][1,2,4]triazin-5-yl)pyrrolidin-3-yl)acrylamide] |
| < 0.2 | 1.5 to 5 | 1.5 to 5 | Cc1cc(Nc2ncnn3ccc(N4CCCN(C(=O)/C=C/CN5CCOCC5)CC4)c23)ccc1Oc1ccn2ncnc2c1 [Example 80, (E)-1-(4-(4-((4-([1,2,4]triazolo[1,5-a]pyridin-7-yloxy)-3-methylphenyl)amino)pyrrolo[2,1-f][1,2,4]triazin-5-yl)-1,4-diazepan-1-yl)-4-morpholinobut-2-en-1-one] |
| 0.2 to 0.5 | 1.5 to 5 | 1.5 to 5 | Cc1cc(Nc2ncnn3ccc(N4CC(NC(=O)/C=C/CN5CCOCC5)C4)c23)ccc1Oc1ccn2ncnc2c1 [Example 81, (E)-N-(1-(4-((4-([1,2,4]triazolo[1,5-a]pyridin-7-yloxy)-3-methylphenyl)amino)pyrrolo[2,1-f][1,2,4]triazin-5-yl)azetidin-3-yl)-4-morpholinobut-2-enamide] |
| < 0.2 | 0.2 to 0.5 | 1.5 to 5 | Cc1cc(Nc2ncnn3ccc(C4CN(C(=O)/C=C/CN5CCC(F)(F)C5)C4)c23)ccc1Oc1ccn2ncnc2c1 [Example 84, (E)-1-(3-(4-((4-([1,2,4]triazolo[1,5-a]pyridin-7-yloxy)-3-methylphenyl)amino)pyrrolo[2,1-f][1,2,4]triazin-5-yl)azetidin-1-yl)-4-(3,3-difluoropyrrolidin-1-yl)but-2-en-1-one] |
| < 0.2 | < 0.2 | 1.5 to 5 | Cc1cc(Nc2ncnn3ccc(C4CN(C(=O)/C=C/CN5CCC(F)(F)CC5)C4)c23)ccc1Oc1ccn2ncnc2c1 [Example 85, (E)-1-(3-(4-((4-([1,2,4]triazolo[1,5-a]pyridin-7-yloxy)-3-methylphenyl)amino)pyrrolo[2,1-f][1,2,4]triazin-5-yl)azetidin-1-yl)-4-(4,4-difluoropiperidin-1-yl)but-2-en-1-one] |
| 1.5 to 5 | 1.5 to 5 | 1.5 to 5 | Cc1cc(Nc2ncnn3ccc(C4CN(C(=O)/C(C#N)=C/C(C)(C)C)C4)c23)ccc1Oc1ccn2ncnc2c1 [Example 89, (E)-2-(3-(4-((4-([1,2,4]triazolo[1,5-a]pyridin-7-yloxy)-3-methylphenyl)amino)pyrolo[2,1-f][1,2,4]triazin-5-yl)azetidine-1-carbonyl)-4,4-dimethylpent-2-enenitrile] |
| < 0.2 | < 0.2 | 1.5 to 5 | Cc1cc(Nc2ncnn3ccc(C4CN(C(=O)/C(F)=C/C5CCCN5C)C4)c23)ccc1Oc1ccn2ncnc2c1 (stereo not drawn) [Example 92, (Z)-1-(3-(4-((4-([1,2,4]triazolo[1,5-a]pyridin-7-yloxy)-3-methylphenyl)amino)pyrrolo[2,1-f][1,2,4]triazin-5-yl)azetidin-1-yl)-2-fluoro-3-(1-methylpyrrolidin-2-yl)prop-2-en-1-one] |
| < 0.2 | < 0.2 | 1.5 to 5 | COC1CN(C/C=C/C(=O)N2CCC(c3ccn4ncnc(Nc5ccc(Oc6ccn7ncnc7c6)c(C)c5)c34)CC2)C1 [Example 117, (E)-1-(4-(4-((4-([1,2,4]triazolo[1,5-a]217midazol-7-yloxy)-3-methylphenyl)amino)pyrrolo[2,1-f][1,2,4]triazin-5-yl)piperidin-1-yl)-4-(3-methoxyazetidin-1-yl)but-2-en-1-one] |
| < 0.2 | < 0.2 | 1.5 to 5 | COC1CCN(C/C=C/C(=O)N2CCC(c3ccn4ncnc(Nc5ccc(Oc6ccn7ncnc7c6)c(C)c5)c34)CC2)C1 (stereo not drawn) [Example 118, E-1-(4-(4-((4-([1,2,4]triazolo[1,5-a]217midazol-7-yloxy)-3-methylphenyl)amino)pyrrolo[2,1-f][1,2,4]triazin-5-yl)piperidin-1-yl)-4-(3-methoxypyrrolidin-1-yl)but-2-en-1-one] |

| SMILES | GI50 (BaF3_HER2WT cells) [µM] | GI50 (BaF3_HER2YVMA cells) [µM] | GI50 (BaF3_EGFRWT cells) [µM] |
| --- | --- | --- | --- |
| C=CC(=O)N(C)C1CCN(c2ccn3ncnc(Nc4ccc(Oc5ccn6ncnc6c5)c(C)c4)c23)C1 (stereo not drawn) [Example 72, N-(1-(4-((4-([1,2,4]triazolo[1,5-a]pyridin-7-yloxy)-3-methylphenyl)amino)pyrrolo[2,1-f][1,2,4]triazin-5-yl)pyrrolidin-3-yl)-N-methylacrylamide] | < 0.2 | < 0.2 | 1.5 to 5 |
